These are literature values, as cited in publication PMC11528414 (Journal of the American Chemical Society, 2024).

The series concerns PANC-1. The following applies: read-out: Reported Anticancer Activity PANC-1 (IC50); reported values.

Structures are written as SMILES. pIC50: −log10 of the molar value.

Turning to `C[N+]1=C2C=C(NCCc3ccc(O)cc3)C(=O)c3[nH]cc(c32)CC1` [makaluvamine J], the pIC50 is 7.27.
